Measurements published in patent US20040024055A1, “Pharmaceutical composition containing the exract of saururus chinensis baill useful as an anticancer agent and a process for the preparation thereof” (priority 2000, published 2004).

Assays:
[1] = Anticancer activity of sauristolactam separated from saururus; conditions: separated from saururus and crystallized
[2] = test system: cell line treated as in Experimental Example 1; assay: LDH analysis of remaining cell after NO detection; format: cell-based; conditions: 1% Triton treatment
Source text: The remaining cell after NO detection was identified as dead by measuring existence rate and necrosis rate through MTT analysis and LDH analysis.

Row | Compound | anticancer activity [1] | LDH Analysis (necrosis rate) [2]
1 | COc1c(O)cc2c3c(cc4ccccc4c13)N(C)C2=O [sauristolactam] | no anticancer activity was detected | 
2 | Triton X-100 |  | 100%
